Where two headings read alike, the source gives them in different places.
Experiments:
COX-2 = biological target: T1, COX-2 (Homo sapiens, UniProt P35354); details: cited from earlier work
T1 sequence (P35354 18-604): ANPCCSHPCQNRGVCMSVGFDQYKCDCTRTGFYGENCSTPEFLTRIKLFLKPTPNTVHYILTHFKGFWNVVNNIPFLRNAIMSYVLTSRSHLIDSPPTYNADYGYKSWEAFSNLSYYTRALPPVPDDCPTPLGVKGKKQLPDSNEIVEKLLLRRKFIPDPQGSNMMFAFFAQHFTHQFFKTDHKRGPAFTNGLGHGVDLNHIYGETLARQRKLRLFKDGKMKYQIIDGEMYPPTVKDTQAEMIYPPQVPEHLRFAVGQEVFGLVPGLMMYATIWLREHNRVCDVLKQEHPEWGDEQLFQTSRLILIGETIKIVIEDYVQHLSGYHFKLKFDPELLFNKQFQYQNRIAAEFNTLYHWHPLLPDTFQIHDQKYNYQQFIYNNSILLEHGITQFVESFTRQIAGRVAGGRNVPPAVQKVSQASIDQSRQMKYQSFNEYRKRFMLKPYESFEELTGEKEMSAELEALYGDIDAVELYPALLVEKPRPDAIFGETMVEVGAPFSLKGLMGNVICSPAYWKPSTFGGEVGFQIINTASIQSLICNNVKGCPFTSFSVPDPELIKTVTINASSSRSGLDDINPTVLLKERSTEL

IL-4 = experiment: PHA-stimulated human PBMC, IL-4 in supernatant by Cytometric Bead Array; assay type: cell-based; details: PHA 10 μg/ml, read-out: IC50 inhibitory activity, stimulation-induced IL-4
Procedure: (§1) Normal human peripheral blood mononuclear cells (PBMC) were stimulated with phytohemagglutinin (PHA) 10 μg/ml in the presence and absence of varying concentrations of compounds of formula I and II. Culture supernatants were harvested and IIL-4 and IL-5 cytokines were quantitated by Cytometric Bead Array (CBA™) kit (Becton Dickinson, USA) following manufacturers instructions using a Flow Cytometer (BD LSR, Becton Dickinson) and CBA™ analysis software (Becton Dickinson).

IL-5 = experiment: PHA-stimulated human PBMC, IL-5 in supernatant by Cytometric Bead Array; assay type: cell-based; details: PHA 10 μg/ml, read-out: IC50 inhibitory activity, stimulation-induced IL-5
Procedure: as §1

hepatocarcinoma cells = details: cited from earlier work
OVA specific IgE = experiment: OVA-specific IgE levels in sera by ELISA, OVA mouse model; assay type: in vivo, BALB/c mice; details: 10 mg/kg vs OVA/OVA/VEH
Procedure: (§2) Mice were sensitized with 0.2 ml PBS containing 50 μg ovalbumin (OVA) (Sigma, USA) and 4 mg aluminum hydroxide in saline intraperitonially (i.p.) on days 0, 7 and 14 as shown in FIG. 1. Sham group mice were sensitized with only alum dissolved in PBS. From day 18 to 27, mice were exposed to aerosol of OVA (3%) inhalation 25 minutes daily in a Plexiglas chamber (20×20×10 cm^3). The aerosol was generated by a nebulizer (OMRON CX model) with an airflow rate of 9 L/minute. Sham group mice were challenged with PBS alone.
Compound 1 of formula I was dissolved in 50% ethanol. So 50% ethanol was used as a vehicle. Group I was alum sensitized, saline challenged and treated with vehicle (SHAM/SAL/VEH), group II was OVA sensitized, OVA challenged and treated with 50% ethanol as vehicle (OVA/OVA/VEH), group III, IV, V, VI were OVA sensitized, OVA challenged and treated with 0.05, 0.1, 5 and 10 mg/kg compound 1 of formula I. Drug was given in the volume of 10 μl orally twice per day. […]
OVA-specific IgE levels in sera were measured by enzyme linked immunosorbent assay (ELISA) as described previously with little modification (Inflam. Res. 2003, 52, 101-106). Absorbance values at 450 nm were converted to arbitrary values by multiplying with 100. IL-4 levels in lung homogenates were measured by ELISA method as per manufacturer's instructions (BD Pharmingen, USA). […]

[1] = mouse, in vivo
Procedure: (§3) Earlier, LD50 of ICB 14 C6 was derived from in vitro cytotoxicity assay by NRUmethod in 3T3 cells. […] For 90d sub-chronic toxicity study the highest dose selected was one-fourth of the limit dose. Four different doses of ICB14 C6 (47, 23, 12 and 0 [vehicle] mg/kg body weight) were prepared in ground nut oil daily for 5 days a week for 90d.
After 90d of oral treatment with ICB3001, 3 mice in each group were sacrificed and major organs were placed in 10% formalin to prepare histological slides. The slides were stained by haematoxylin-eosin dye.

3T3 cells = experiment: In vitro cytotoxicity by NRU method, predicted acute oral LD50; assay type: cell-based; details: derived from in vitro cytotoxicity
Procedure: as §3

lung inflammation = experiment: Histological analysis of lung inflammation (H&E), OVA mouse model; assay type: in vivo, BALB/c mice
Procedure: as §2
Compound 1 of formula I was dissolved in 50% ethanol. So 50% ethanol was used as a vehicle. Group I was alum sensitized, saline challenged and treated with vehicle (SHAM/SAL/VEH), group II was OVA sensitized, OVA challenged and treated with 50% ethanol as vehicle (OVA/OVA/VEH), group III, IV, V, VI were OVA sensitized, OVA challenged and treated with 0.05, 0.1, 5 and 10 mg/kg compound 1 of formula I. Drug was given in the volume of 10 μl orally twice per day. Confirmatory experiments were done with two concentrations of compound 1 of formula I (5 and 10 mg/kg twice a day), and these findings were compared with parallel group of mice which were OVA-sensitized, -OVA challenged and treated orally once a day with 0.75 mg/kg Dexamethasone (OVA/OVA/DEX).
The excised lung portion was fixed in 10% buffered formalin. […]

[2] = design: species or system mice; details: mouse, in vivo
Procedure: 14 d acute oral toxicity of compound 1 of formula I was performed. Three doses were selected: 47, 23, 12 and 0 mg/kg bw (Vehicle control) of compound 1 of formula I was administered by single oral gavage using blunt ended steel canula.
Clinical biochemistry was performed using detection kit purchased from SPINREACT, SA, Spain. The blood left after the hematological studies were allowed to clot for 2 h and serum separated by centrifugation at 3000 rpm for 5 min and subsequently used for clinical biochemistry. Details of the clinical biochemistry (Table 4) and relative organ weight (Table 5) are given below.

For `C=CCc1ccc(O)c(O)c1` [Compound 1, 4-allyl-benzene-1,2-diol], the COX-2 inhibition (COX-2) is given as “potent COX-1/COX-2 inhibitor”, the IC50 (IL-4) is given as 5 µM and the IC50 (IL-5; Homo sapiens) is given as 4.5 µM. The IC50 (IL-5) was 5 µM, the “cell cycle arrest and apoptosis” value (hepatocarcinoma cells) was “induce cell cycle arrest and apoptosis” and the “OVA specific IgE levels in sera” value (OVA specific IgE) was “significantly reduced the OVA specific IgE levels in sera”. For the same compound, the “OVA specific IgE levels in sera” value (OVA specific IgE; listed as compound of formula I) was “significant reduction”, the heart histology [1] was “no significant changes in the histo-architecture” and the kidney histology [1] was “no significant changes were observed”. For the same compound, the liver histology [1] was “no change in the structure of hepatic cells”, the lung histology ([1]; 47 mg/kg) was “slight thickening of intercellular septum and migration of polymorphonuclear lymphocytes” and the “predicted acute oral LD50” value (3T3 cells) was 168 mg/kg. The “lung inflammation (H&E)” value (lung inflammation; 5 mg/kg) was “mild reduction of inflammation”, the “lung inflammation (H&E)” value (lung inflammation; 10 mg/kg) was “a significant reduction in both peribronchial and perivascular inflammation” and the “serum bilirubin vs normal range” value [2] was “marginal rise in the serum bilirubin”. It also gave an Acid phosphatase ([2]; 12 mg/kg) of 2.98 ± 1.2, a Bilirubin ([2]; 12 mg/kg) of 0.28 ± 0.30 mg/dL and a Glucose ([2]; 12 mg/kg) of 49 ± 0.193 mg/dL. For the same compound, the SGOT ([2]; 12 mg/kg) was 4.32 ± 1.87 U/L, the SGPT ([2]; 12 mg/kg) was 8.42 ± 5.8 U/L and the Uric acid ([2]; 12 mg/kg) was 5.89 ± 1.6 mg/dL. It also gave a gammaGT ([2]; 12 mg/kg) of 1.78 ± 0.68 U/L, an Acid phosphatase ([2]; 23 mg/kg) of 2.75 ± 0.74 and a Bilirubin ([2]; 23 mg/kg) of 0.19 ± 0.22 mg/dL. The Glucose ([2]; 23 mg/kg) was 57 ± 0.12 mg/dL, the SGOT ([2]; 23 mg/kg) was 8.64 ± 3.74 U/L and the SGPT ([2]; 23 mg/kg) was 12.15 ± 5.50 U/L. The Uric acid ([2]; 23 mg/kg) was 7.51 ± 4.13 mg/dL, the gammaGT ([2]; 23 mg/kg) was 2.38 ± 1.19 U/L and the Acid phosphatase ([2]; 47 mg/kg) was 2.06 ± 1.52. The Bilirubin ([2]; 47 mg/kg) was 1.41 ± 0.3 mg/dL, the Glucose ([2]; 47 mg/kg) was 58 ± 0.07 mg/dL and the SGOT ([2]; 47 mg/kg) was 3.24 ± 2.91 U/L. For the same compound, the SGPT ([2]; 47 mg/kg) was 10.8 ± 23^ U/L, the Uric acid ([2]; 47 mg/kg) was 5.59 ± 2.67 mg/dL and the gammaGT ([2]; 47 mg/kg) was 2.38 ± 0.97 U/L.

Source: patent publication US9302967B2, “Substituted cathechols as inhibitors of IL-4 and IL-5 for the treatment of bronchial asthma” (Council of Scientific & Industrial Research, priority 2011, dated 2016)
